Experiment [1] deals with T1, ^3 H-noradrenaline uptake (noradrenaline transporter) (Rattus norvegicus, UniProt Q63380).
T1 construct: Hippocampi from male Wistar rats (150-200 g) are homogenized; from tissue; host or cells: P2 synaptosomes of hippocampus, male Wistar rats
Description: In vitro inhibition of ^3 H-noradrenaline (^3 H-NA) uptake in hippocampal synaptosomes. The experiment is classed as biochemical, rat (male Wistar). The following applies: ^3 H-NA 1 nM, 90 min at 37° C. From the text: The compounds of the invention have also been tested for their ability to inhibit reuptake of dopamine(DA) noradrenalin(NA) and serotonin(5-HT) in synaptosomes.
Specific neurotransmitter transporters/uptake sites on nerve terminals presumably function to terminate neuronal signaling by removing the neurotransmitters dopamine, noradrenaline and serotonin, respectively, from the synaptic cleft. The activity of the transporter integral proteins can be measured in vitro by synaptosomal uptake of ^3 H-dopamine, ^3 H-noradrenaline and ^3 H-serotonine, respectively.
In vitro inhibition of ^3 H-noradrenaline (^3 H-NA) uptake in hippocampal synaptosomes
Tissue preparation: Preparations are performed at 0°-4° C. unless otherwise indicated. Hippocampi from male Wistar rats (150-200 g) are homogenized for 5-10 sec in 100 volumes of ice-cold 0.32M sucrose containing 1 mM pargyline using an Ultra-Turrax homogenizer. Monoamine oxidase activity will be inhibited in the presence of pargyline. The homogenate is centrifuged at 1000×g for 10 min. The resulting supernatant is then centrifuged at 27,000×g for 50 min and the supernatant is discarded. The pellet (P2) is resuspended in oxygenated (equilibrated with an atmosphere of 96% O2 : 4% CO2 for at least 30 min) Krebs-Ringer incubation buffer (2000 ml per g of original tissue) at pH 7.2 containing 122 mM NaCl, 0.16 mM EDTA, 4.8 mM KCl, 12.7 mM Na2 HPO4, 3.0 mM NaH2 PO4, 1.2 mM MgSO4, 0.97 mM CaCl2, 10 mM glucose and 1 mM ascorbic acid.
Assay: Aliquots of 4.0 ml tissue suspension are added to 100 μl of test solution and 100 μl of ^3 H-NA (1 nM, final concentration), mixed and incubated for 90 min at 37° C. Non-specific uptake is determined using desipramine (1 μM, final concentration). After incubation the samples are poured directly onto Whatman GF/C glass fibre filters under suction. […] The amount of radioactivity on the filters is determined by conventional liquid scintillation counting. Specific uptake is calculated as the difference between total uptake and non-specific uptake. […]

The next experiment concerns the target T2, dopamine transporter (Rattus norvegicus, UniProt P23977).
T2 construct: Corpus striatum from male Wistar rats (150-200 g) is homogenized; from tissue; host or cells: corpus striatum of male Wistar rats
As to the kind of experiment: In vitro inhibition of ^3 H-WIN 35428 binding (corpus striatum). To be noted: rat corpus striatum, ^3 H-WIN 35428 1 nM, 60 min at 2° C.; read-out: in vitro IC50. Set-up: species or system rat (male Wistar). From the text:
The compounds of the present invention have been tested for their ability to bind to the dopamine transporter in the following tests for in vitro and in vivo inhibition of ^3 H-WIN 35428.
In vitro inhibition of ^3 H-WIN 35428 binding
Dopamine transporters/uptake sites on nerve terminals presumably function to terminate neuronal signaling by removing dopamine from the synaptic cleft. The activity or presence of the dopamine transporter integral protein can be measured in vitro with synaptosomal uptake of ^3 H-dopamine or membrane binding assays with ^3 H-ligands known to bind to the transporter.
Numerous ligands of several structural types have been reported to bind at the dopamine uptake site, but it remains questionable whether their binding sites are identical to that of cocaine.
Tissue preparation: Preparations are performed at 0°-4° C. unless otherwise indicated. Corpus striatum from male Wistar rats (150-200 g) is homogenized for 5-10 sec in 10 ml NaH2 PO4 (50 mM, pH 7.4) using an Ultra-Turrax homogenizer. The suspension is centrifuged at 27,000×g for 15 min. The supernatant is discarded and the pellet is resuspended in 50 mM NaH2 PO4, pH 7.4 (1000 ml per g of original tissue) and used for binding assays.
Assay: Aliquots of 0.5 ml tissue are added to […] of ^3 H-WIN 35428 (1 nM, final concentration), mixed and incubated for 60 min at 2° C. Non-specific binding is determined using cocaine ([…], final concentration). After incubation the samples are added 5 ml of ice-cold buffer and poured directly onto Whatman GF/C glass fibre filters under suction and immediately washed with 5 ml ice-cold buffer. The amount of radioactivity on the filters is determined by conventional liquid scintillation counting. Specific binding is total binding minus non-specific binding.
25-75% inhibition of specific binding must be obtained, before calculation of an IC50. The test value is given as IC50 (the concentration (μM) of the test substance which inhibits the specific binding of ^3 H-WIN 35428 by 50%).

As usually defined, the IC50 is the concentration needed to halve the response being measured.

Structures can show the parent of a compound that is named as a salt.

T2 sequence (P23977 whole entry): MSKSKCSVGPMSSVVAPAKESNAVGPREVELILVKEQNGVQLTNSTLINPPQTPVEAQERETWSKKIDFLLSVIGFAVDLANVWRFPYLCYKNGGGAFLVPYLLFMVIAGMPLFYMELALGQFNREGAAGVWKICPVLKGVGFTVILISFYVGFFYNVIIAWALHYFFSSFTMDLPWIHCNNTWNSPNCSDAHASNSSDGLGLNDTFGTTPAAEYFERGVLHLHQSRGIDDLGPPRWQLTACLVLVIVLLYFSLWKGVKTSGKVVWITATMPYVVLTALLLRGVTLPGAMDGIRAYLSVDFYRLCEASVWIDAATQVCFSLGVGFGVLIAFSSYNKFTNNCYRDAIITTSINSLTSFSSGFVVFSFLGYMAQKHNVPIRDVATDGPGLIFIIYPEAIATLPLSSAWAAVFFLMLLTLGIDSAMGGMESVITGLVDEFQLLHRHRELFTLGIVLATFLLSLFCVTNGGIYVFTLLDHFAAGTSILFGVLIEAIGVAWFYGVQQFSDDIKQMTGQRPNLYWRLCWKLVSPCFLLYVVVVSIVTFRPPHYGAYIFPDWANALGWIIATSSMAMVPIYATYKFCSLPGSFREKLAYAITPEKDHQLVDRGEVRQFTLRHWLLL
T1 sequence (Q63380 1-617): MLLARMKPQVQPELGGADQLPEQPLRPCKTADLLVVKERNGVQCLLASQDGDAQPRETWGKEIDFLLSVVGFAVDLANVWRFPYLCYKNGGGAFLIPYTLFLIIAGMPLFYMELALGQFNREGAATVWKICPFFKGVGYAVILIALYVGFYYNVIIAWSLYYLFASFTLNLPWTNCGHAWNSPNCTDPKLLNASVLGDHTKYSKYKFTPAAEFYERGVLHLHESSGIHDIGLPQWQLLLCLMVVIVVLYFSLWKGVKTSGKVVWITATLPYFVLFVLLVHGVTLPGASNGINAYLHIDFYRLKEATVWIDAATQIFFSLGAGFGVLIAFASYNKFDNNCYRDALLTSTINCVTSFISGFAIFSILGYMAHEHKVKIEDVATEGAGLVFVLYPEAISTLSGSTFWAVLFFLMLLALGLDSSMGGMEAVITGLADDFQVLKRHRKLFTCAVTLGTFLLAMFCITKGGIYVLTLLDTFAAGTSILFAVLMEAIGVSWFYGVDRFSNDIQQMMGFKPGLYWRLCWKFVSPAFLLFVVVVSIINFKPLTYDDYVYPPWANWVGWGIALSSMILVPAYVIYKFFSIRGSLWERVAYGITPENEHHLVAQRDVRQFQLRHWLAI

In the case of `CON=C[C@@H]1[C@@H](c2ccc(Cl)c(Cl)c2)C[C@@H]2CC[C@H]1N2C` [(1R,2R,3S)-3-(3,4-dichlorophenyl)-tropane-2-O-methyl-aldoxime, H2 SO4], the IC50 in experiment [1] stood at 1.3 nM; at dopamine transporter, 3 nM.
The corresponding values for `CON=C[C@@H]1[C@@H](c2ccc(Cl)c(Cl)c2)C[C@@H]2CC[C@H]1N2` [(1R,2R,3S)-N-Normethyl-3-(3,4-dichlorophenyl)tropane-2-O-methyl-aldoxime, hydrochloride] are 1.3 nM and 6 nM.

These data come from patent US5736556A, “Tropane-2-aldoxime derivatives as nevro transmitter reuptake inhibitors” (NeuroSearch A/S, priority 1994, dated 1998).
